Measured values: patent US20090226956A1, “RUNX-MEDIATED ACTION OF NUCLEAR RECEPTORS AND UTILITIES THEREOF” (University of Southern California, priority 2008, published 2009)

Tests used:
[1] = test system: Runx2; assay: 6XOSE2-luc Runx2 reporter luciferase assay, COS7 cells transfected with Runx2 and ERβ; format: cell-based, human; conditions: COS7, 6XOSE2-luc, 10 nM, 24 h
Description: (§1) FIG. 1. ERα inhibits Runx2. (A,B) COS7 cells were transiently transfected with the Runx reporter 6XOSE2-luc (firefly) along with expression vectors encoding human Runx2 (A), Runx1 (B), ERα, and/or ERβ as indicated. […] In each experiment, the firefly luciferase results were corrected for the expression of a co-transfected CMV-renilla luciferase construct (internal control), except for Panel A, where the renilla luciferase values are shown in the inset graph. […] All data are presented as mean values±SEM, with n=4 dish replicates of a representative experiment, repeated at least 3 times.
Cells were seeded at a density of 10,000 per well in 96-well plates and grown in 5% charcoal-stripped serum (CSS)-containing phenol red-free medium for 24 h. The indicated plasmids (50 ng reporter, 52 ng total) were transfected using ‘LTX and Plus reagent’ according to manufacture's specification (Invitrogen, Carlsbad, Calif.). Equimolar amounts of the empty vectors pcDNA 3.1 and pSG5 were used as controls, and the pCAT-basic promoter-less plasmid was used as ‘filler’ DNA. Under these conditions the total amounts of promoter equivalents (molar) and DNA mass (ng) were the same in all wells of a particular experiment. […] Luciferase activity was determined using the dual-assay luciferase kit (Promega, Madison, Wis.).

[2] = test system: Runx2; assay: 6XOSE2-luc Runx2 reporter luciferase assay, COS7 cells transfected with Runx2 and ERα; format: cell-based, human
Description: as §1
(§2) FIG. 6. Various effects of SERM-bound ERα on Runx2. […] (B, C) COS7 cells were transfected with Runx2 and its 6XOSE2-luc reporter (B), or with ERE-luc (C) along with expression vectors coding for the indicated ER isoforms or fragments. […] All data are presented as mean values±SEM, with n=4 dish replicates of a representative experiment, repeated at least 3 times.
Cells were seeded at a density of 10,000 per well in 96-well plates and grown in 5% charcoal-stripped serum (CSS)-containing phenol red-free medium for 24 h. The indicated plasmids (50 ng reporter, 52 ng total) were transfected using ‘LTX and Plus reagent’ according to manufacture's specification (Invitrogen, Carlsbad, Calif.). Equimolar amounts of the empty vectors pcDNA 3.1 and pSG5 were used as controls, and the pCAT-basic promoter-less plasmid was used as ‘filler’ DNA. Under these conditions the total amounts of promoter equivalents (molar) and DNA mass (ng) were the same in all wells of a particular experiment. As an internal control, 0.01 ng of tk-Renilla-luc or CMV-renilla-luc (Promega, Madison, Wis.) was used for correction of transfection efficiency. Cells were subsequently treated with vehicle (EtOH, 0.01%) or the indicated ligands for 24 h. Luciferase activity was determined using the dual-assay luciferase kit (Promega, Madison, Wis.).
COS7 cells were transiently transfected with the indicated expression vectors along with a reporter for either Runx2 (6XOSE2-luciferase) or the classical transcriptional activation activity of ER (ERE-luciferase).

[3] = test system: Runx2; conditions: same cells as Raloxifene; cited from earlier work
[4] = test system: Runx2 in MDA-MB-231 cells; assay: 6XOSE2-luc Runx2 reporter assay in MDA-MB-231 breast cancer cells expressing ERα; format: cell-based, human; conditions: ERα expressed; E2 10 nM, OHT 100 nM, ICI 182780 100 nM
Description: as §2
(§3) COS7 cells were maintained in Dulbeco Modified Eagle Medium (DMEM) and 5% fetal bovine serum (FBS). The mouse osteoblastic cell line MC3T3-E1 was maintained in α-MEM and 10% FBS. Runx-reporter osteoblasts were generated by stable transfection of MC3T3-E1 cells with the 6XOSE2-luc reporter construct using the calcium phosphate coprecipitation method and hygromycin ([…]) as the selection drug. Resistance to hygromycin was conferred by cotransfection of the pCEP plasmid (1:15 molar ratio). To support development of the osteoblast phenotype, cells were treated with 50 μg/ml ascorbic acid and […] β-glycerophosphate commencing at confluence. The human breast cancer cell lines MDA-MB-231, T47D, and MCF7 were maintained in DMEM and 5% FBS.
(§4) Cells were seeded at a density of 10,000 per well in 96-well plates and grown in 5% charcoal-stripped serum (CSS)-containing phenol red-free medium for 24 h. […] Luciferase activity was determined using the dual-assay luciferase kit (Promega, Madison, Wis.).

[5] = test system: Runx2 in T47D cells; assay: 6XOSE2-luc Runx2 reporter assay in T47D breast cancer cells; format: cell-based, human; conditions: 100 nM
Description: as §2, §3, §4

[6] = test system: Runx2 in MCF7 cells; assay: 6XOSE2-luc Runx2 reporter assay in MCF7 breast cancer cells; format: cell-based, human; conditions: 100 nM
Description: as §2, §3, §4

[7] = test system: Runx2; assay: 6XOSE2-Luc Runx2 reporter luciferase assay, COS7 cells transfected with Runx2 and AR; format: cell-based, human
Description: As COS7 cells were transiently transfected in 96 well format with the Runx2 reporter 6XOSE2-Luc (firefly luciferase) along with expression vectors encoding human Runx2, AR, and GR as indicated. […] B. Parallel sets of COS7 cell cultures were transfected with either the AR reporter MMTV-Luc or the Runx2 reporter 6XOSE-Luc, along with 1 ng each of AR and Runx2 expression plasmids. […] Bar graphs represent luciferase assays, in which the reporters OSE2-Luc (left panel) and MMTV-Luc (right panel), were transfected with expression plasmids encoding wild type AR (WT) or a mutant AR lacking the AF1 domain (ΔAF1) as indicated.
We examined the effect of AR on the transcriptional potential of Runx2 using transient transfection reporter assays COS7 cells, which express neither transcription factor, were transfected with plasmids encoding Runx2 and AR, along with the 6XOSE2-Luc reporter, in which luciferase is controlled by six copies of the OSE2 Runx2 binding site (53).
Since AR is a potent transcription factor, we investigated if its transactivation function was required for repressing Runx2. […] MMTV-Luc and 6XOSE2-Luc were used as reporters for monitoring the transactivation and Runx2 repression functions of AR, respectively, with equal amounts of each of AR and Runx2 expression plasmids co-transfected in both assays.
Unless otherwise stated, these hormones were applied at a final concentration of 10 nM in 0.001% ethanol as the vehicle.
(§5) Transient transfection, luciferase, co-IP and ChIP—These assays were performed essentially as previously described (34, 51).

[8] = test system: endogenous Runx2 in PC3-AR cells; conditions: DHT 24 hrs; not in PC3-GFP cells
Description: B. PC3 cell that had been stably transduced with lentiviruses encoding AR or GFP were transiently transfected with the MMTV-Luc (left) or 6XOSE2-Luc (middle) reportersk, followed by luciferase assay, or, they were subjected to RT-qPCR analysis of the OC gene (right). […] Mean±SEM, n=4.
To study the influence of AR on Runx2 activity and on the Runx2 target gene OC in PCa cells, AR was first stably introduced into PC3 cells by retroviral infection. The transduced cells, designated PC3-AR, presumably resemble PCa cells that endogenously express both Runx2 and wild type AR. These cells were transiently transfected with the MMTV-Luc or the 6XOSE2-Luc reporter plasmid. PC3-GFP cells, transduced with a GFP-encoding retrovirus, were used as control.
Quantitative real time RT-PCR—Total RNA was isolated using Aurum Total RNA® kit (Bio-Rad, Hercules, Calif.) following the manufacturer's recommendations. One microgram of total RNA was reverse-transcribed using the Superscript III kit (Invitrogen) and the cDNA was subjected to real-time PCR amplification (RTqPCR) using iQ™ SYBR Green Supermix (Bio-Rad).

[9] = test system: Runx1; conditions: COS7, 6XOSE2-luc (FIG. 25)
Description: The ability of sex steroids and their receptors to repress Runx1 was determined by transient transfection assays of COS7 cells as described earlier for Runx2.
We tested the effects of ERαX, ERβ, AR and GR on Runx1 activity using the same assay employed for Runx2.

[10] = test system: MC3T3-E1 cells
Description: Staining with 4′,6-diamidino-2-phenylindole (DAPI) demarcates the cell nucleus.
A sub-line that had been stably transfected with the 6XOSE2-Luc reporter (51) was employed to simultaneously test the influence of AR on pure Runx2 activity (luciferase) and on OC gene expression.
Confocal immunofluorescence microscopy—Cells were grown on 18 mm^2 cover-slips in 6-well plates for 24 hrs in growth medium with CSS. […] Cells were mounted using Vectashield Hard Set mounting medium with DAPI (Burlingame, Calif.) and viewed using an LSM 510 Zeiss confocal microscope at 60× magnification. Images were processed using the software program Image J.

[11] = test system: endogenous Runx proteins in PC3 cells; conditions: 6XOSE2-luciferase, 10 nM DHT
Description: Interaction between AR and Runx proteins in PC3 cells that express endogenous Runx proteins. A. EMSA assessing Runx protein activity using an OSE2 ^32P-labeled probe. Whole cell extracts from PC3 cells were shifted and supershifted with Runx1 and Runx2 antibodies respectively and successfully competed with WT 10× and 100×OSE2 unlabeled probe. […] Confocal of endogenous Runx (fluorescein) proteins and AR (rhodamine) under transfected or untransfected AR conditions.

[12] = test system: Runx2 occupancy of the endogenous OSE2 site; conditions: Day-9 MC3T3-E1, DHT four hours, ChIP
Description: Occupancy was quantified by qPCR of an OC promoter fragment containing the OSE2 site or a fragment of the insulin promoter as control.
To test whether the DNA-binding exclusion model operates in vivo, we investigated whether AR interferes with binding of Runx2 to its chromatin-embedded OSE2 element at the OC promoter in MC3T3-E1 cells.
A slight modification was introduced for immunoprecipitation using MC3T3-E1 and PC3-AR cells. These cells were plated in a 150 mm dish in phenol-red free media supplemented with 5% CSS. The MC3T3-E1 cell culture medium was further supplemented, commencing at confluence, with 50 μg/ml ascorbic acid and 150 mM β-glycerophosphate.

[13] = test system: Runx2 in SaOS-2 cells; conditions: DHT 24 hrs
Description: Data are representative of at least three independent experiments.
as §5

[14] = molecular target: ERα/Runx2 complexes (Homo sapiens, UniProt P03372); conditions: COS7; E2 10 nM, OHT 100 nM, ICI 182780 100 nM; 24 h
Description: Cells were seeded at a density of 300,000 per well in six-well plates and grown in 5% CSS-containing phenol red-free medium for 24 h. Cells were transfected when indicated, and 24 h later they were lysed in a 50 mM Tris-HCl buffer (pH 7.4) containing 150 mM NaCl, 1 mM EDTA, 1% Triton X-100, and fresh Protease Inhibitors Cocktail (1%; Sigma, St. Louis, Mo.). […] The remaining lysate was immunoprecipitated with approximately 3 μg of the specified antibody and 30 μl Protein-G beads (Amersham Biosciences Freiburg, Germany) and washed three times for 5 min each with the same buffer, followed by centrifugation at 4,000 rpm for 1 min. […] Input and immunoprecipitates were analyzed by Western blot analysis.

[15] = molecular target: T1, ERα (Homo sapiens, UniProt P03372); assay: ERE-luc ER reporter luciferase assay in COS7 cells; format: cell-based; conditions: 100 nM (FIG. 6C)
T1 sequence (P03372 1-595): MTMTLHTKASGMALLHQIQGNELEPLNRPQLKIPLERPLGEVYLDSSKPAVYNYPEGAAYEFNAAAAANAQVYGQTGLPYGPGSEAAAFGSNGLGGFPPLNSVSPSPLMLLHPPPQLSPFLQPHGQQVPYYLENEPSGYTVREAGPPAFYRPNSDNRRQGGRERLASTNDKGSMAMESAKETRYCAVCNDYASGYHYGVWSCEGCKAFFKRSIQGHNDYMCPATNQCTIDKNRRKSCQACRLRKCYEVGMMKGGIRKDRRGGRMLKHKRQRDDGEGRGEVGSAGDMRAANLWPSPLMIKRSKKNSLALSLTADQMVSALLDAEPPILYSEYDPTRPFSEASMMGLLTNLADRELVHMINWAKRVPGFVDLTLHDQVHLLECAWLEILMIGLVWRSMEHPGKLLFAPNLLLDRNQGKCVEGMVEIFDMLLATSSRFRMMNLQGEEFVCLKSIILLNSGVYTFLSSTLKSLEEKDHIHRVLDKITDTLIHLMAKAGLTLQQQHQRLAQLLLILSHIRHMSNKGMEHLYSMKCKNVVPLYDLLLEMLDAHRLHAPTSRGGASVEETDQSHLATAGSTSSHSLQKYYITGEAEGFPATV

[16] = molecular target: AR DBD (Homo sapiens, UniProt P10275 P10275:540-647); assay: EMSA; GST-AR-DBD alone forms no complex with OSE2; conditions: tags: GST fusion, E. coli BL21(DE3); label: 32P
Description: Where indicated, the binding reaction also contained purified GST, GST-AR-DBD, GST-AR-DBD^A573D (see FIG. 14G), or anti-Runx2 specific antibodies, either native (n) or denaturated by boiling (b). […] Arrow indicates Runx2/OSE2 complex.
The source for Runx2 was MC3T3-E1 cell extract and recombinant GST-AR-DBD was purified from E. coli.

[17] = COS7, 6XOSE2-Luc, 10 nM, 24 hrs

AR DBD, sequence (P10275 540-647, one chain of several): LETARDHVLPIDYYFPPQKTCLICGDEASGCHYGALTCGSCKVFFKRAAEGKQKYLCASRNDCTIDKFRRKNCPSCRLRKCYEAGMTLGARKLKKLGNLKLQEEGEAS
ERα/Runx2 complexes, sequence (Q13950 1-507 isoform Q13950-2 partner, one chain of several): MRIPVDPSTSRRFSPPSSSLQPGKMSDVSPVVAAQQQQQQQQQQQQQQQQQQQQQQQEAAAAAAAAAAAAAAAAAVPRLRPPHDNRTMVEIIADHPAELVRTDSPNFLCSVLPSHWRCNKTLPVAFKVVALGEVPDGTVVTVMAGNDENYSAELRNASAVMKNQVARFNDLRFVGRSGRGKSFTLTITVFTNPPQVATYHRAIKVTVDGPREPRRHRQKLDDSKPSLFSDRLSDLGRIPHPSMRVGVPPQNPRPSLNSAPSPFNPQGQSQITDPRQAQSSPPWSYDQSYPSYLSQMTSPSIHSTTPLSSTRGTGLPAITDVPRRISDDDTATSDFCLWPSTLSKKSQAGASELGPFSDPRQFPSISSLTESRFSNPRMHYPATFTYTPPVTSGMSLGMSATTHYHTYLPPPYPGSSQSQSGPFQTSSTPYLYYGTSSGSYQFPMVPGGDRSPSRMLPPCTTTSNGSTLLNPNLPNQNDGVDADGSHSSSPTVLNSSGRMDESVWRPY

## C[C@]12CC[C@@H]3c4ccc(O)cc4CC[C@H]3[C@@H]1CC[C@@H]2O [E2, estradiol]
[1]
  Effect on Runx2 activity in the presence of ERβ: did not inhibit
[2]; COS7, 6XOSE2-luc, in the presence of ERα, E2 10 nM, 24 h (FIG. 1A)
  Inhibition of Runx2 activity: 76%

## CC/C(=C(\c1ccccc1)c1ccc(OCCN(C)C)cc1)c1ccccc1 [Tamoxifene]
[3]
  Effect on Runx2 activity in COS7 cells (Khalid et al., 2008, FIG. 6B): small inhibitory effect

## O=C(c1ccc(OCCN2CCCCC2)cc1)c1c(-c2ccc(O)cc2)sc2cc(O)ccc12 [Raloxifene]
[2]; 6XOSE2-luciferase, 100 nM Raloxifene, 24 hrs
  Effect on Runx2 activity in COS7 cells (Example V): small effect is stimulatory

## CC/C(=C(\c1ccc(O)cc1)c1ccc(OCCN(C)C)cc1)c1ccccc1 [OHT, hydroxytamoxifen]
[4]
  Effect on 6XOSE2 Runx2 reporter in MDA-MB-231 cells: as strongly as E2
[2]; COS7, 6XOSE2-luc, ERαDBD-LBD fragment, 100 nM
  Effect on Runx2 when bound to the ERαDBD-LBD: stimulatory effect
[2]; COS7, 6XOSE2-luc, full-length ERα, 100 nM, 24 h
  Effect on Runx2 activity: slightly inhibited
[5]
  Effect on Runx2 in T47D cells: uniformly inhibitory
[6]
  Effect on Runx2 in MCF7 cells: uniformly inhibitory

## C[C@]12CCC(=O)C[C@@H]1CC[C@@H]1[C@@H]2CC[C@]2(C)[C@@H](O)CC[C@@H]12 [DHT, dihydrotestosterone]
[7]; [17]
  Effect on Runx2 activity in the absence of AR: did not affect
  Effect on Runx2 activity in the presence of AR: repressed Runx2 activity to basal levels
[7]; COS7, 6XOSE2-Luc, DHT 10 nM
  Effect on Runx2 activity in the presence of GR: did not alter
[8]
  6XOSE2-Luc reporter activity in PC3-AR cells: strong repression
  OC expression (RT-qPCR) in PC3-AR cells: strongly inhibited
[9]
  Effect of AR+DHT on Runx1 activity: robustly inhibited
[10]; MC3T3-E1, DHT chronically since confluence or 24 hrs prior to harvest
  Expression of both 6XOSE2-Luc and OC on day 9: strongly inhibited
[10]; immunofluorescence, day 1 and day 9, DHT 24 hrs
  AR protein levels in early and late MC3T3-E1 cultures: strongly induced
[11]
  Endogenous Runx-mediated activity in PC3 cells with transfected AR: also inhibited
[12]
  Decrease of Runx2 occupancy of the endogenous OSE2 site: 2.4 fold
[13]
  6XOSE2-Luc luciferase activity in SaOS-2 cells: inhibited luciferase activity

## CC(=O)O[C@]1(C(C)=O)CC[C@H]2[C@@H]3C[C@H](C)C4=CC(=O)CC[C@]4(C)[C@H]3CC[C@@]21C [MPA]
[7]; COS7, 6XOSE2-luciferase, Runx2 and Runx1 (FIG. 21)
  Effect of MPA-stimulated AR on Runx activities: inhibited Runx activities

## C[C@]12CC[C@@H]3c4ccc(O)cc4C[C@@H](CCCCCCCCC[S+]([O-])CCCC(F)(F)C(F)(F)F)[C@H]3[C@@H]1CC[C@@H]2O (stereo partly shown) [ICI 182780]
[14]
  ERα/Runx2 interaction in co-IP (formation of ERα/Runx2 complexes): strongly induced
[4]
  Effect on 6XOSE2 Runx2 reporter in MDA-MB-231 cells: slight if any inhibitory effect
[2]; COS7, 6XOSE2-luc, ERα, ICI 182780 100 nM, 24 h (FIG. 6B)
  Stimulation of Runx2 activity: 3.1 fold
[5]
  Effect on Runx2 in T47D cells: slightly stimulated
[6]
  Effect on Runx2 in MCF7 cells: slightly stimulated
[15]
  Partial agonist effect on an ERE-containing template: weak

B1: OSE2 probe (dsDNA)
DNA 1: AGCTGCAATCACCAACCACAGCA
DNA 2: TGCTGTGGTTGGTGATTGCAGCT
[16]
  binding result: no binding
